The source of these data is EP1801117A1, “Means and methods for regulating amino acid pools and/or transport” (Friesland Brands B.V., priority 2005, dated 2007).

For the experiment, the target named is L. lactis MG1363 BcaP (CtrA), branched-chain amino acid permease (Lactococcus lactis subsp. cremoris, UniProt A2RHI9). Description: Competition experiment: inhibition of L-[14C]isoleucine uptake by unlabeled L-amino acids in whole cells overproducing BcaP. Type of experiment: cell-based. To be noted: 10-fold excess of unlabeled L-amino acid; 250 µM unlabeled L-isoleucine (control); lactococcal cells overproducing BcaP; uptake after 1 min at 30°C; means of three measurements.
Sequence of L. lactis MG1363 BcaP (CtrA), branched-chain amino acid permease (A2RHI9 whole entry): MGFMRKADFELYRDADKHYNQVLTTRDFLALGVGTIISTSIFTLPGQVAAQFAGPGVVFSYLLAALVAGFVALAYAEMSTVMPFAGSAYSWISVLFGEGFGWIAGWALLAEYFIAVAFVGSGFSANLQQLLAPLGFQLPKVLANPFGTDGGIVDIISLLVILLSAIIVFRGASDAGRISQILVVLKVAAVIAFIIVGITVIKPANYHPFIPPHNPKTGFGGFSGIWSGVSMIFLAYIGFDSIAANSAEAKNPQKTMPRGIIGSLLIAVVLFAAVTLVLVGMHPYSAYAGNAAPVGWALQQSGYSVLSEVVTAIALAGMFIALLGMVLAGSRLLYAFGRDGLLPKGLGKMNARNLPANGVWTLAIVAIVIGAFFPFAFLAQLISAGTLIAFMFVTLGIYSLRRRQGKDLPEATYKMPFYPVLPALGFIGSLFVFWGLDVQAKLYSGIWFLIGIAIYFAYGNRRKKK

Description: Amino acid transport assays. L. lactis MG1363 (pNGbcaP; pNZ9530), L. lactis MG1363 or L. lactis MGbcaP, the latter two harboring plasmids pNG8048 and pNZ9530, were grown at 30°C in 50 ml of ½GM17. At an OD600 of approximately 0.4, 1000^-1 volume of supernatant of the nisin-producing strain L. lactis NZ9700 (Kuipers et al, 1993) was added to the cultures to induce BcaP production. At an OD600 of approximately 1.0, cells were harvested by centrifugation at 6300 g and 4°C. Cell pellets were washed with 25 ml of ice-cold CDM, concentrated to an OD600 of 10.0 in CDM lacking amino acids and stored on ice until use. Cells were energized prior to transport assays by 5 min of incubation at 30°C in the presence of 0.5% glucose. Subsequently, 100 µl of cell suspension were mixed with 100 µL of CDM containing 40 µM of the unlabeled amino acid of interest and a final concentration of 1 µM of the same amino acid in a ^14C- or ^35S-labeled form (Amersham Biosciences). For competition experiments, a 10-fold excess of unlabeled amino acid was added. Mixtures were incubated at 30°C for various time intervals while stirring. The reactions were stopped by the addition of 2 ml of ice-cold 0.1 M LiCl, followed by filtration through 0.45 µm pore-size nitrocellulose filters (Schleicher & Schuell, GmbH, Dassel, Germany). Reaction tubes and filters were washed with another 2 mL of ice-cold 0.1 M LiCl. Subsequently, the filters were transferred to vials containing 2 ml of scintillation fluid (Packard BioScience, Groningen, the Netherlands) and radioactivity was determined using a Packard TriCarb 2000 CA liquid scintillation analyzer (Packard Instruments, Meriden, CT).

With `CC[C@H](C)[C@H](N)C(=O)O` [isoleucine], the “inhibition of isoleucine transport by BcaP (reduction of L-[14C]isoleucine uptake)” value was “about 80%”. Consider `CC(C)C[C@H](N)C(=O)O` [leucine], for which the “inhibition of isoleucine transport by BcaP (reduction of L-[14C]isoleucine uptake)” value was “about 80%”.

For `CSCC[C@H](N)C(=O)O` [methionine], the “inhibition of isoleucine transport by BcaP (reduction of L-[14C]isoleucine uptake)” value is reported as 23%. As for `CC(C)[C@H](N)C(=O)O` [valine], the figure is 64%.
